We go through two compounds from patent US20040209906A1, “Composition comprising ketanserin AND AN ALKANOYL L-CARNITINE FOR THE TREATMENT OF CRPS” (Sigma-Tau industrie Farmaceutiche Riunite S.p.A., priority 1998, published 2004).

Test [1] concerns CRPS. The conditions noted are these: in vivo; cited from earlier work.
Test [2] has as its system CRPS. Particulars: ketanserin alone; cited from earlier work.
Test [3] relates to CRPS patients. Put plainly: intravenous ketanserin treatment of CRPS patients (bolus plus infusion). The class given is in vivo. The protocol: All i.v. treatments were performed after at least 15 minutes of acclimatisation at constant temperature (20-23° C.). The temperature of the affected limb was recorded with Hewlett Packard electro-skin probe between digit 4 and 5. In addition continues photoplethysmograpy of the affected hand (digit 2) or foot (digit 1), blood pressure and hearth rate were recorded. All patients received a bolus of 10 mg of ketanserin i.v. in a running saline infusion. Ketanserin administration was continued by rate of 4 mg per hour.

The mark [4] stands for this setting: after the intravenous treatment with ketanserin.

Structures are written as SMILES.

For `C[S+](C)[O-]` [dimethyl sulfoxide], in test [1], the “efficacy of therapeutic treatment in CRPS” value is listed as “efficacious only during acute CRPS”; the “therapeutic result for symptoms caused by hyperpathia and allodinia” value is on record as “without any therapeutic result”.
On to `O=C(c1ccc(F)cc1)C1CCN(CCn2c(=O)[nH]c3ccccc3c2=O)CC1` [ketanserin], for which the “treatment of CRPS symptoms” value in test [2] is “possible to treat most of symptoms, but not those caused by hyperpathia and allodinia”. In test [3] (setting [4]), the skin temperature entry is “normalised” and the “symptom of small vein” value was “disappeared”. In test [3] (all patients, after the intravenous treatment with ketanserin (10 mg bolus, then 4 mg per hour)), the “peripheral circulation of the affected limb” value is recorded as “normalised”.
